According to patent US20050026847A1, “Methods for treating, preventing, or inhibiting injuries, cell membrane stabilization, and calcium mobilization using pseudopterosin compounds” (priority 2003, published 2005):

Legend:
T. thermophila = assay: Phagocytosis activity assay (India ink phagosome formation); format: cell-based, Tetrahymena thermophila; conditions: for effect on rate of phagosome formation / phagocytic activity: 10 minutes drug/ink exposure, FIGS. 2-4; for effect of Pertussis toxin pretreatment on the compound's effect on phagocytosis: Pertussis toxin pretreatment (5 minutes), FIGS. 5-6
Procedure: Log-phase T. thermophila cultures were grown in 2% protease peptone, at 25° C. The cells were washed and resuspended in 10 mM HEPES, pH 7.4 (250,000 cells/ml). Test compounds were mixed with diluted India ink (1:25, v:v) in order to visualize the newly formed phagosomes. At t=0, the drug/ink mixture was added to the Tetrahymena cells, and at t=10 minutes, […] samples of cell suspension were removed and fixed in 10% formaldehyde. At least about 100 random cells from each sample were then examined using a light microscope. Phagocytic activity was assessed by calculating the ratio of cells with food vacuoles compared to the cells with no food vacuoles.

Tetrahymena cells = assay: Ca++ signaling assay (Calcium Orange fluorescence, intracellular calcium release); format: cell-based, Tetrahymena thermophila; conditions: for effect of Pertussis toxin pretreatment on the compound's calcium release activity: 0.5 μg/ml Pertussis toxin for 5 minutes prior to treatment
Procedure: Cell density was adjusted to 500,000 cells/ml using a 10 mM HEPES and 2.5 mM Probenecid buffer (pH 7.4) (Sigma, St. Louis, Mo.). The cells were loaded with 3 μM Calcium Orange AM ester (Molecular Probes, Eugene, Oreg.) for 90 minutes in the dark. The cells were washed, resuspended in buffer, and incubated for 1 hour to allow de-esterification of the fluorescent probe. The cells were washed twice and placed in a 2 ml quartz cuvet. Calcium release was measured by an LS50B Perkin Elmer Fluorimeter (Ex=549, Em=576) (Perkin Elmer, Wellesley, Mass.) for a 20 minute period. The cells were exposed to the test compounds for 20 minutes and then the fluorescence was recorded. In some experiments, the cells were pretreated with 0.5 μg/ml Pertussis toxin for 5 minutes. FIGS. 7A-7C show Tetrahymena cells loaded with Calcium Orange under fluorescence microscopy (X400). Upon calcium binding to calcium orange, the intensity increases thereby indicating the release of intracellular calcium. FIG. 7A is a control.

[1] = test system: Heterocapsa pygmaea cells; assay: Injury response assay, physical injury (ultrasound-induced oxidative burst, H2O2 by DCFH-DA); format: cell-based; conditions: FIG. 16, read-out: inhibition of oxidative burst in injured cells
Procedure: The released reactive oxygen species were calibrated to H2O2, the least labile of the group. […] Specifically, by homogenization in a blender with 0.22 μm filtered seawater and 10 mM EDTA, and filtered through 4 layers of cheesecloth. Algal symbionts were pelleted out by centrifugation at 250×g and subsequently washed 10 times with 40 ml clean filtered seawater and pelleted by centrifugation at 750×g. The cells were further purified on Percoll® (Sigma, St. […] DNA staining using DAPI detected on epifluorescence microscopy was used to detect contaminants due to bacterial or coral cells. Cells isolated from live coral were diluted to a final concentration of about 5×10^5 cells/ml using a hemocytometer and maintained in filtered seawater. Heterocapsa pygmaea is grown in culture in F-1 media without silica. The cells were harvested in log growth phase and diluted to about 5×10^5 cells/ml using a hemocytometer. […] H2O2 concentration was calculated from a standard curve from DCFH-DA fluorescence (0.05 mM, redox sensitive probe, requires esterase (82 U) for detection of H2O2). Fluoresence was measured using a Perkin Elmer LS50B Fluorimeter, excitation 488 nm and emission 525 nm.

H. pygmaea cells = assay: Injury response assay, chemical injury (mastoparan-induced oxidative burst); format: cell-based, Heterocapsa pygmaea; conditions: 10 μM, FIG. 14
Procedure: (§1) To determine the protective effect of pseudopterosin compounds against chemical injury, mastoparan was administered to test cells and released reactive oxygen species calibrated to H2O2 was measured as an indicator of injury.
(§2) Symbiodinium spp. cells were isolated, prepared and identified as described in Example 3. Heterocapsa pygmaea was grown in culture in F-1 media without silica. The cells were harvested in log growth phase and diluted to about 5×10^5 cells/ml using a hemocytometer. […] The oxidative burst was prevented or inhibited by about 71% by incubating the H. pygmaea cells with a mixture comprising 25 μM of pseudopterosin compounds for 1 hour prior to exposure to mastoparan.
(§3) H2O2 concentration was calculated from a standard curve from DCFH-DA fluorescence (0.05 mM, redox sensitive probe, requires esterase (82 U) for detection of H2O2). Fluorescence was measured using a Perkin Elmer LS50B Fluorimeter, excitation 488 nm and emission 525 nm.

Symbiodinium spp. cells = assay: Injury response assay, chemical injury (mastoparan) in Symbiodinium; format: cell-based; conditions: 10 μM, FIG. 14
Procedure: as §1, §2, §3

[2] = Cell-free hydrogen peroxide scavenging (direct antioxidant) assay; conditions: 50 μM
Procedure: A mixture of hydrogen peroxide and water without cells was mixed with the DCFH-DA dye and 82U of esterase as described above. To this mixture the drugs were added and results monitored on the fluorimeter.

Q: For `[Ca+2].[Cl-].[Cl-]` [CaCl2], which “effect on rate of phagosome formation / phagocytic activity” value (T. thermophila) is on record?
A: increases the rate of phagocytic activity

Q: What does the source list for `CC(C)=C[C@H]1C[C@H](C)[C@H]2CC[C@H](C)c3c(O[C@@H]4OC[C@@H](O)[C@H](O)[C@H]4O)c(O)c(C)c1c32` [PsA, Pseudopterosin A]?
A: effect on rate of phagosome formation / phagocytic activity (T. thermophila): decreases the rate of phagosome formation in a dose dependent manner; effect of Pertussis toxin pretreatment on the compound's effect on phagocytosis (T. thermophila): completely blocks the effect of PsA on phagocytosis; effect of Pertussis toxin pretreatment on the compound's calcium release activity (Tetrahymena cells): Pertussis toxin blocks PsA activity; effect of mastoparan on PsA activity (Tetrahymena cells; FIG. 10A): Mastoparan does not inhibit PsA; effect of Verapamil or Gd3+ on the effects of PsA (intracellular calcium release and phagosome formation) (Tetrahymena cells; T. thermophila): not inhibited by Verapamil or Gd^3+; effect of suramin pretreatment on PsA activity (Tetrahymena cells; suramin pretreatment (5 minutes), FIG. 10B): blocks PsA activity

Q: Which inhibition at 50 µM [1] does the source give for `c1ccc2c(c1)[I+]c1ccccc1-2` [DPI, Diphenylene iodonium chloride] here?
A: ~96%

Q: With mastoparan as the compound, how does the “effect of Pertussis toxin pretreatment on the compound's calcium release activity” value (Tetrahymena cells) read?
A: inhibits the effects of mastoparan

Q: What about the “effect of mastoparan on oxidative burst in H. pygmaea” value (H. pygmaea cells) of the same compound?
A: cause a large oxidative burst

Q: What about the “effect of mastoparan on Symbiodinium spp. cells” value (Symbiodinium spp. cells) of the same compound?
A: no effect

Q: Which “effect of Pertussis toxin pretreatment on the compound's effect on phagocytosis” value (T. thermophila) does the source give for `COc1ccc2c(c1)CC[C@@H]1[C@@H]2CC[C@]2(C)[C@@H](NCCCCCCN3C(=O)C=CC3=O)CC[C@@H]12` [Pseudopterosin U73122] here?
A: not blocked by Pertussis toxin pretreatment

Q: What about the “effect of Pertussis toxin pretreatment on the compound's calcium release activity” value (Tetrahymena cells) of the same compound?
A: Pertussis toxin does not inhibit U73122 activity

Q: Which “immediate reduction of the fluorescent signal in cell free system” value [2] does the source give for `O=C1O[C@H]([C@@H](O)CO)C(O)=C1O` [ascorbic acid] here?
A: about 60%
